Laboratory results reported in patent US6111145A, “Cyclopentenone derivative” (Takara Shuzo Company, priority 1997, dated 2000).

How the values were obtained:
topoisomerase II = topoisomerase II (Homo sapiens, UniProt P11388); test: Topoisomerase II inhibition, pBR322 DNA relaxation by agarose gel electrophoresis; format: biochemical
Experimental: (1) One μl of 0.25 μg/μl pBR322 DNA (manufactured by Takara Shuzo) was added to a mixture of 2 μl of topoisomerase II (manufactured by TopoGEN, 2 units/μl), 2 μl of a buffer with a ten-fold diluted concentration [0.5M Tris-HCl (pH 8.0), 1.2M KCl, 0.1M MgCl2, 5 mM adenosine triphosphate and 5 mM dithiothreitol], 2 μl of 0.1% bovine serum albumin (manufactured by Takara Shuzo), 11 μl of distilled water and 2 μl of distilled water (a control) or 4,5-di-tert-butylcyclopentenone ether prepared into various concentrations by water and made to react at 37° C. After the reaction for 30 minutes, the reaction was stopped by adding 2 μl aqueous solution of 1% sodium dodecylsulfate, 50% glycerol and 0.02% Bromophenol Blue.
The above reaction solution (20 μl) was applied to 1% agarose gel prepared from agarose L03 (manufactured by Takara Shuzo) and TAE buffer [40 mM Tris, 5mM sodium acetate and 1 mM disodium ethylenediaminetetraacetate (EDTA); adjusted to pH 7.8 with acetic acid] and electrophoresis was conducted in the TAE buffer. After the electrophoresis, the gel was dipped in an aqueous solution of 1 μg/ml ethidium bromide and irradiated with ultraviolet ray to observe the electrophoretic pattern of DNA.

[1] = set-up: species or system mice; conditions: mouse, in vivo, 300 mg/kg
[2] = tested on: carrageenan-induced pedal edema; test: Carrageenan-induced pedal edema model; format: in vivo; conditions: Lewis rats, oral 1 or 10 mg/kg in olive oil 0.5 hour before carrageenan, paw volume after three hours
Experimental: Lewis rats (male; nine weeks age; body weight: about 250 g) were purchased from Seakku-Yoshitomi and the inflammation models such as carrageenan-induced pedal edema model (a model of rheumatoid arthritis) were prepared as follows whereby the tested substances were evaluated.
Thus, 4-tert-butylcyclopentenone ether or 4,5-di-tert-butylcyclopentenone ether in various concentrations by dissolving in olive oil (manufactured by Nacalai Tesque) was orally administered at the dose of 1 mg/10 ml/kg or 10 mg/10 ml/kg to rats which were fasted for 18 hours before initiation of the experiment.
After 0.5 hour from administration of these test drugs, 100 μl/rat of 1% suspension of carrageenan (manufactured by Wako) in a physiologically saline solution (manufactured by Otsuka Pharmaceutical) was injected to right paw to induce pedal edema. After three hours from the carrageenan injection, volume of right paw of the rat was measured by a pedal volume measuring device (manufactured by UGO BASILE). Incidentally, the measured value was expressed by calculating the increasing rate from the right paw volume of each rat measured before the carrageenan administration.

[3] = tested on: Promyelocytic leukemia cell strain HL-60 (ATCC CCL-240); test: Growth of HL-60 cells, MTT method with microscopic observation; format: cell-based, human; conditions: HL-60, at the concentration completely suppressing growth
Experimental: (1) A 1.22, 2.44, 4.88, 9.77, 19.5, 39.1, 78.1, 156, 313, 625, 1250, 2500, 5000 or 10000 μg/ml solution (10 μl) (in 70% aqueous solution of ethanol) of 4-benzylcyclopentenone ether, 5-benzylcyclopentenone ether or 4,5-dibenzylcyclopentenone ether or a 70% aqueous solution of ethanol as a control (10 μl) was added to each well of a 96-well microtiter plate followed by drying with air. Promyelocytic leukemia cell strain HL-60 (ATCC CCL-240) was suspended in an RPMI 1640 medium containing 10% of fetal calf serum to an extent of 1×10^5 cells/ml, each 100 μl thereof was poured into each well of the above microtiter plate and incubated at 37° C. for 48 hours in the presence of 5% of CO2. Incubation was continued for four hours more after addition of 10 μl of a solution (5 mg/ml) of 3-(4,5-dimethylthiazol-2-yl)-2,5-diphenyltetrazolium bromide (MTT; manufactured by Sigma) in a phosphate-buffered aqueous saline solution and then the state of growth of the cells was observed under a microscope. Further, 100 μl of 2-propanol containing 0.04N HCl was added thereto followed by well stirring and the absorbance at 590 nm was measured.
(2) Influence of 4-tert-butylcyclopentenone ether, 5-tert-butylcyclopentenone ether or 4,5-di-tert-butylcyclopentenone ether to the growth of HL-60 cells was measured by the same method as in Example 2-(1).

topoisomerase II, sequence (P11388 whole entry): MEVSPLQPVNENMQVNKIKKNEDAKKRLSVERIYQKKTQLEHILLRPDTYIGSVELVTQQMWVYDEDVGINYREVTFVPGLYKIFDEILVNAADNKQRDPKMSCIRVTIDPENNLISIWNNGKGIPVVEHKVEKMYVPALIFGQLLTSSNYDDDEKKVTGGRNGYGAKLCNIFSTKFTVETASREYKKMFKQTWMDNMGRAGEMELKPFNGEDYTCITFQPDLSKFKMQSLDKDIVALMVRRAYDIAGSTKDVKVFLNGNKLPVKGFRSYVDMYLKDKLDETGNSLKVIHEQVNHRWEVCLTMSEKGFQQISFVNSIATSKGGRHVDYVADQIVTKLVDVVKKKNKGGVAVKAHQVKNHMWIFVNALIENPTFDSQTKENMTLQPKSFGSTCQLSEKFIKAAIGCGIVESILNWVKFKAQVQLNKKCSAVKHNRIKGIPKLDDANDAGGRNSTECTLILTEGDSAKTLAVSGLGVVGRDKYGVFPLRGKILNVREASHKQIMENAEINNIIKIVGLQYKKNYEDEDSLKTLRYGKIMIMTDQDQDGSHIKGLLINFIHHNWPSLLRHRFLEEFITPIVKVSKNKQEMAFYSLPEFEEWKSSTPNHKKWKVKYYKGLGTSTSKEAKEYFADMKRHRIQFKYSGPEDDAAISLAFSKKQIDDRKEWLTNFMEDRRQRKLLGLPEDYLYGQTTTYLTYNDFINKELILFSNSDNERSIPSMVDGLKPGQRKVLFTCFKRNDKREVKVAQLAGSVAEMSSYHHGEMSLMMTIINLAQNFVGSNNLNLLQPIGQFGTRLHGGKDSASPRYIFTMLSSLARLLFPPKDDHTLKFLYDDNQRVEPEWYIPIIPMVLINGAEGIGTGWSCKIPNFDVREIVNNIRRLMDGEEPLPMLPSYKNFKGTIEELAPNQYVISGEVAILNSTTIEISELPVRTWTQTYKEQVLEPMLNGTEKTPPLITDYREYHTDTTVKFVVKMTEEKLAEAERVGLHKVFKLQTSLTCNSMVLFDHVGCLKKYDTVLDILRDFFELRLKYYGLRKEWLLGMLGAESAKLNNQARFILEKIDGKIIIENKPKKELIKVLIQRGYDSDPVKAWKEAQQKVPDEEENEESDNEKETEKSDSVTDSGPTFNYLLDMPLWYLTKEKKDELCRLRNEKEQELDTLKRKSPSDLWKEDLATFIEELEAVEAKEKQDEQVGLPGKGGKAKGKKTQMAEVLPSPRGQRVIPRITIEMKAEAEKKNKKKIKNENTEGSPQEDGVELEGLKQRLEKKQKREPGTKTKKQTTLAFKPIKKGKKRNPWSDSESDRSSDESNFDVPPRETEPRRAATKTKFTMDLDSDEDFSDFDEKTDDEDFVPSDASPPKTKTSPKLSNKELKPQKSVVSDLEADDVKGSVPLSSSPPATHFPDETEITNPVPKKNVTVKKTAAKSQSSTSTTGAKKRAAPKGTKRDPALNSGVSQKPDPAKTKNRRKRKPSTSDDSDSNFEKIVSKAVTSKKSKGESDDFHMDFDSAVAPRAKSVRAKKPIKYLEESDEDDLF

Row | SMILES | death after single oral administration [1] | suppressing action to edema induced by carrageenan (increasing rate of pedal edema) [2] | formation of apoptic body [3] | further results
1 | CC(C)(C)O[C@@H]1C(=O)C=C[C@H]1OC(C)(C)C (relative stereo) [4,5-di-tert-butylcyclopentenone ether] | no dead case was noted | showed an suppressing action to edema | – | superhelix DNA remaining (topoisomerase II; 250 μM in the reaction solution): the superhelix DNA remained to an medium extent; superhelix DNA remaining (topoisomerase II; 500 μM in the reaction solution): most of the superhelix DNA remained; superhelix DNA remaining (topoisomerase II; 1000 μM in the reaction solution): the superhelix DNA did not decrease at all; concentration in the reaction solution showing topoisomerase suppressing activity (topoisomerase II; pBR322 DNA, 37° C., 30 minutes): not less than 250 μM
2 | O=C1C=C[C@@H](OCc2ccccc2)[C@@H]1OCc1ccccc1 (relative stereo) [4,5-dibenzylcyclopentenone ether] | – | – | Formation of apoptic body was noted | –
3 | O=C1C=C[C@@H](OCc2ccccc2)[C@@H]1O (relative stereo) [4-benzylcyclopentenone ether] | – | – | Formation of apoptic body was noted | –
4 | CC(C)(C)O[C@@H]1C=CC(=O)[C@H]1O (relative stereo) [4-tert-butylcyclopentenone ether] | no dead case was noted | showed an suppressing action to edema | – | –
5 | O=C1C=C[C@@H](O)[C@@H]1OCc1ccccc1 (relative stereo) [5-benzylcyclopentenone ether] | – | – | Formation of apoptic body was noted | –
